Where “and” joins values, the source holds several entries; their conditions need not be identical. Equal entries are not always repeated. Numbers after ± are expanded uncertainties.
Settings: Frequency=8 MHz, Dual path-length method

CC(C)C [2-methylpropane]
Settings	speed of sound
300 K, 50138 kPa, Liquid	1240.1 ± 0.09 m/s
300 K, 60144 kPa, Liquid	1297.7 ± 0.1 m/s
300 K, 70151 kPa, Liquid	1350.8 ± 0.1 m/s
300 K, 80158 kPa, Liquid	1400.3 ± 0.11 m/s
300 K, 90165 kPa, Liquid	1446.7 ± 0.11 m/s
300 K, 100172 kPa, Liquid	1490.4 ± 0.12 m/s
300.01 K, 2103.9 kPa, Liquid	831.02 ± 0.076 m/s
319.99 K, 40132 kPa, Liquid	1106.5 ± 0.08 m/s
319.99 K, 45135 kPa, Liquid	1140.9 ± 0.08 m/s
320 K, 1103.3 kPa, Liquid	702.16 ± 0.078 m/s
320 K, 1103.7 kPa, Liquid	702.18 ± 0.078 m/s
320 K, 1105.9 kPa, Liquid	702.16 ± 0.078 m/s
320 K, 2106.5 kPa, Liquid	719.58 ± 0.076 m/s
320 K, 3107.1 kPa, Liquid	736.11 ± 0.075 m/s
320 K, 5106.2 kPa, Liquid	766.91 ± 0.073 m/s
320 K, 5106.5 kPa, Liquid	766.92 ± 0.073 m/s
320 K, 5108.3 kPa, Liquid	766.9 ± 0.073 m/s
320 K, 6108.3 kPa, Liquid	781.34 ± 0.073 m/s
320 K, 7109 kPa, Liquid	795.23 ± 0.072 m/s
320 K, 8109.8 kPa, Liquid	808.64 ± 0.072 m/s
320 K, 9110.4 kPa, Liquid	821.6 ± 0.072 m/s
320 K, 10109 kPa, Liquid	834.15 ± 0.072 m/s
320 K, 10110 kPa, Liquid	834.16 ± 0.072 m/s and 834.15 ± 0.072 m/s
320 K, 15114 kPa, Liquid	891.73 ± 0.072 m/s
320 K, 17616 kPa, Liquid	917.89 ± 0.072 m/s
320 K, 20118 kPa, Liquid	942.65 ± 0.073 m/s
320 K, 25121 kPa, Liquid	988.67 ± 0.075 m/s
320 K, 30123 kPa, Liquid	1030.8 ± 0.08 m/s
320 K, 30124 kPa, Liquid	1030.9 ± 0.08 m/s
320 K, 35128 kPa, Liquid	1070 ± 0.08 m/s
320 K, 50136 kPa, Liquid	1173.5 ± 0.09 m/s
320 K, 50139 kPa, Liquid	1173.5 ± 0.09 m/s
320 K, 60146 kPa, Liquid	1234 ± 0.09 m/s
320 K, 70153 kPa, Liquid	1289.5 ± 0.1 m/s
320 K, 80160 kPa, Liquid	1340.8 ± 0.1 m/s
320 K, 90167 kPa, Liquid	1388.9 ± 0.11 m/s
320 K, 100174 kPa, Liquid	1434 ± 0.12 m/s
320.01 K, 12612 kPa, Liquid	863.87 ± 0.072 m/s
340 K, 2104 kPa, Liquid	604.55 ± 0.08 m/s
340 K, 2104.2 kPa, Liquid	604.63 ± 0.08 m/s
340 K, 3104.8 kPa, Liquid	625.77 ± 0.078 m/s
340 K, 4105.5 kPa, Liquid	645.52 ± 0.076 m/s
340 K, 5106 kPa, Liquid	664.1 ± 0.074 m/s
340 K, 5106.2 kPa, Liquid	664.04 ± 0.074 m/s
340 K, 6106.7 kPa, Liquid	681.52 ± 0.072 m/s
340 K, 7107.5 kPa, Liquid	698.12 ± 0.072 m/s
340 K, 8108.3 kPa, Liquid	713.94 ± 0.071 m/s
340 K, 9109.1 kPa, Liquid	729.07 ± 0.07 m/s
340 K, 10109 kPa, Liquid	743.63 ± 0.07 m/s
340 K, 10110 kPa, Liquid	743.59 ± 0.07 m/s
340 K, 12612 kPa, Liquid	777.6 ± 0.07 m/s
340 K, 15113 kPa, Liquid	808.91 ± 0.07 m/s
340 K, 17616 kPa, Liquid	838.02 ± 0.07 m/s
340 K, 20118 kPa, Liquid	865.3 ± 0.07 m/s
340 K, 25121 kPa, Liquid	915.43 ± 0.072 m/s
340 K, 30123 kPa, Liquid	960.88 ± 0.074 m/s
340 K, 30125 kPa, Liquid	960.87 ± 0.074 m/s
340 K, 35128 kPa, Liquid	1002.6 ± 0.07 m/s
340 K, 40130 kPa, Liquid	1041.4 ± 0.08 m/s
340 K, 40132 kPa, Liquid	1041.4 ± 0.08 m/s
340 K, 45135 kPa, Liquid	1077.7 ± 0.08 m/s
340 K, 50140 kPa, Liquid	1112 ± 0.08 m/s
340 K, 60147 kPa, Liquid	1175.2 ± 0.09 m/s
340 K, 70154 kPa, Liquid	1232.9 ± 0.09 m/s
340 K, 80159 kPa, Liquid	1286 ± 0.1 m/s
340 K, 90166 kPa, Liquid	1335.6 ± 0.11 m/s
340 K, 100173 kPa, Liquid	1382.1 ± 0.11 m/s
360 K, 2104.4 kPa, Liquid	480.04 ± 0.09 m/s
360 K, 3105.2 kPa, Liquid	509.76 ± 0.084 m/s
360 K, 4105.9 kPa, Liquid	536.09 ± 0.08 m/s
360 K, 5104.5 kPa, Liquid	559.92 ± 0.076 m/s
360 K, 5104.9 kPa, Liquid	559.91 ± 0.076 m/s
360 K, 6107.2 kPa, Liquid	581.76 ± 0.073 m/s
360 K, 7108 kPa, Liquid	602.06 ± 0.072 m/s
360 K, 8109.7 kPa, Liquid	621.09 ± 0.07 m/s
360 K, 9110.4 kPa, Liquid	639 ± 0.069 m/s
360 K, 10108 kPa, Liquid	655.98 ± 0.069 m/s
360 K, 10111 kPa, Liquid	655.99 ± 0.069 m/s
360 K, 12613 kPa, Liquid	695.08 ± 0.068 m/s
360 K, 15114 kPa, Liquid	730.38 ± 0.067 m/s
360 K, 17616 kPa, Liquid	762.73 ± 0.067 m/s
360 K, 20118 kPa, Liquid	792.71 ± 0.068 m/s
360 K, 25121 kPa, Liquid	847.15 ± 0.069 m/s
360 K, 30125 kPa, Liquid	895.9 ± 0.071 m/s
360 K, 35128 kPa, Liquid	940.3 ± 0.073 m/s
360 K, 40132 kPa, Liquid	981.26 ± 0.075 m/s
360 K, 45135 kPa, Liquid	1019.4 ± 0.08 m/s
360 K, 50136 kPa, Liquid	1055.2 ± 0.08 m/s
360 K, 50137 kPa, Liquid	1055.2 ± 0.08 m/s
360 K, 50138 kPa, Liquid	1055.2 ± 0.08 m/s
360 K, 60146 kPa, Liquid	1121 ± 0.08 m/s
360 K, 70152 kPa, Liquid	1180.7 ± 0.09 m/s
360 K, 80159 kPa, Liquid	1235.6 ± 0.1 m/s
360 K, 90166 kPa, Liquid	1286.5 ± 0.1 m/s
360 K, 100173 kPa, Liquid	1334.2 ± 0.11 m/s
380 K, 3104.5 kPa, Liquid	378.47 ± 0.1 m/s
380 K, 3604.1 kPa, Liquid	399.56 ± 0.095 m/s
380 K, 4105.2 kPa, Liquid	418.49 ± 0.089 m/s
380 K, 5105.8 kPa, Liquid	451.63 ± 0.081 m/s
380 K, 6106.5 kPa, Liquid	480.42 ± 0.076 m/s
380 K, 7107.2 kPa, Liquid	506.13 ± 0.073 m/s
380 K, 8107.8 kPa, Liquid	529.51 ± 0.07 m/s
380 K, 8109.6 kPa, Liquid	529.52 ± 0.07 m/s
380 K, 9107.5 kPa, Liquid	551.1 ± 0.069 m/s
380 K, 9107.9 kPa, Liquid	551.06 ± 0.069 m/s
380 K, 10108 kPa, Liquid	571.15 ± 0.067 m/s
380 K, 10111 kPa, Liquid	571.16 ± 0.067 m/s
380 K, 12610 kPa, Liquid	616.32 ± 0.066 m/s
380 K, 15112 kPa, Liquid	656.14 ± 0.065 m/s
380 K, 15114 kPa, Liquid	656.15 ± 0.065 m/s
380 K, 17614 kPa, Liquid	692.04 ± 0.065 m/s
380 K, 20115 kPa, Liquid	724.92 ± 0.065 m/s
380 K, 20116 kPa, Liquid	724.9 ± 0.065 m/s
380 K, 25120 kPa, Liquid	783.75 ± 0.066 m/s
380 K, 25121 kPa, Liquid	783.75 ± 0.066 m/s
380 K, 30123 kPa, Liquid	835.78 ± 0.068 m/s
380 K, 35127 kPa, Liquid	882.76 ± 0.07 m/s
380 K, 40130 kPa, Liquid	925.81 ± 0.072 m/s
380 K, 45134 kPa, Liquid	965.68 ± 0.074 m/s
380 K, 50137 kPa, Liquid	1003 ± 0.08 m/s
380 K, 60144 kPa, Liquid	1071.2 ± 0.08 m/s
380 K, 70152 kPa, Liquid	1132.8 ± 0.09 m/s
380 K, 80160 kPa, Liquid	1189.2 ± 0.09 m/s
380 K, 90167 kPa, Liquid	1241.4 ± 0.1 m/s
380 K, 100174 kPa, Liquid	1290.2 ± 0.11 m/s
380.01 K, 20115 kPa, Liquid	724.92 ± 0.065 m/s
380.01 K, 50136 kPa, Liquid	1002.9 ± 0.08 m/s
400 K, 4606.1 kPa, Liquid	309.14 ± 0.1 m/s
400 K, 5106.4 kPa, Liquid	334.25 ± 0.092 m/s
400 K, 6107.2 kPa, Liquid	375.6 ± 0.081 m/s
400 K, 7108.1 kPa, Liquid	409.76 ± 0.075 m/s
400 K, 8108.8 kPa, Liquid	439.33 ± 0.071 m/s
400 K, 8109.3 kPa, Liquid	439.33 ± 0.071 m/s
400 K, 9109.5 kPa, Liquid	465.69 ± 0.068 m/s
400 K, 10110 kPa, Liquid	489.63 ± 0.066 m/s
400 K, 10111 kPa, Liquid	489.63 ± 0.066 m/s
400 K, 12612 kPa, Liquid	541.93 ± 0.063 m/s
400 K, 15114 kPa, Liquid	586.71 ± 0.062 m/s and 586.72 ± 0.062 m/s
400 K, 17616 kPa, Liquid	626.34 ± 0.062 m/s
400 K, 20117 kPa, Liquid	662.12 ± 0.062 m/s
400 K, 25122 kPa, Liquid	725.35 ± 0.063 m/s
400 K, 30126 kPa, Liquid	780.54 ± 0.065 m/s
400 K, 35129 kPa, Liquid	829.95 ± 0.067 m/s
400 K, 40132 kPa, Liquid	874.94 ± 0.069 m/s
400 K, 45136 kPa, Liquid	916.42 ± 0.072 m/s
400 K, 50139 kPa, Liquid	955.05 ± 0.074 m/s
400 K, 60146 kPa, Liquid	1025.5 ± 0.08 m/s
400 K, 70153 kPa, Liquid	1088.7 ± 0.08 m/s
400 K, 80160 kPa, Liquid	1146.5 ± 0.09 m/s
400 K, 90167 kPa, Liquid	1199.9 ± 0.1 m/s
400 K, 100174 kPa, Liquid	1249.7 ± 0.1 m/s
420 K, 6107.4 kPa, Gas	266.66 ± 0.095 m/s
420 K, 7108.4 kPa, Gas	314.01 ± 0.083 m/s
420 K, 8109.2 kPa, Gas	351.95 ± 0.076 m/s
420 K, 9110 kPa, Gas	384.27 ± 0.071 m/s
420 K, 10111 kPa, Gas	412.72 ± 0.069 m/s
420 K, 12613 kPa, Gas	472.84 ± 0.065 m/s
420 K, 15115 kPa, Gas	522.73 ± 0.063 m/s
420 K, 17617 kPa, Gas	566.03 ± 0.063 m/s
420 K, 20119 kPa, Gas	604.64 ± 0.063 m/s
420 K, 25122 kPa, Gas	671.99 ± 0.064 m/s
420 K, 30126 kPa, Gas	730.1 ± 0.066 m/s
420 K, 35129 kPa, Gas	781.73 ± 0.068 m/s
420 K, 40133 kPa, Gas	828.47 ± 0.071 m/s
420 K, 45136 kPa, Gas	871.4 ± 0.074 m/s
420 K, 50140 kPa, Gas	911.24 ± 0.077 m/s
420 K, 60146 kPa, Gas	983.6 ± 0.083 m/s
420 K, 70153 kPa, Gas	1048.4 ± 0.09 m/s
420 K, 80160 kPa, Gas	1107.4 ± 0.09 m/s
420 K, 90167 kPa, Gas	1161.8 ± 0.1 m/s
420 K, 100174 kPa, Gas	1212.4 ± 0.11 m/s

Reference: the NIST ThermoML archive (doi:10.1021/acs.jced.8b00202)
